Reference: BigSolDB 2.1

CN(Cc1ccccc1)CN1C(=O)C(=NNC(=O)c2ccccc2OCc2ccccc2)c2ccccc21
Conditions | solubility (mole fraction)
in PEG-400, 298.15 K | 0.007
in PEG-400, 303.15 K | 0.00778
in PEG-400, 308.15 K | 0.00883
in PEG-400, 313.15 K | 0.00988
in PEG-400, 318.15 K | 0.0113

in water
Conditions | solubility (mole fraction)
298.15 K | 1.07e-06
303.15 K | 1.48e-06
308.15 K | 1.89e-06
313.15 K | 2.39e-06
318.15 K | 2.97e-06
